According to US20220062190A1, “Therapeutic Agent and Nutraceutical Compositions And Methods for Making and Using Same” (NUREVELATION, LLC, priority 2020, published 2022):
Where a name gives a salt, the structure may show the parent alone.

Tested on: not listed separately
Assay: Solubility in water when preparing mass spectrometry standards
Type: physicochemical
Conditions: standard and batch prepared in methanol instead
Procedure: Samples for mass spectrometry were weighed and then concentrated to 5 mg/mL. The samples were further diluted to 0.1 mg/mL for analysis in 50/50 water to methanol. Standards were prepared to 20 μg/mL in optima grade methanol or water. The following standards were prepared in water at 20 μg/mL: bethanechol chloride, chloroquine diphosphate, cyclobenzaprine hydrochloride, D-penicillamine, ondansetron hydrochloride, venlafaxine hydrochloride, and donepezil hydrochloride.
With `Cc1nc2n(c(=O)c1CCN1CCC(c3noc4cc(F)ccc34)CC1)CCCC2` [Risperidone] the solubility in water was “insolubility in water”.

Tested on: movement disorder due to antipsychotics known as dystonia and parkinsonism
Assay: not given
Conditions: use column of Table 1A; cited from earlier work
In the case of `CN1[C@@H]2CC[C@H]1C[C@@H](OC(c1ccccc1)c1ccccc1)C2` [Benztropine], the duration of benefits is listed as ≤ 10 h and the “time until benefits are seen” value is listed as ≤ 2 h.

Tested on: not given
Assay: not given
Conditions: octanol/water; value not marked predicted; source not stated; cited from earlier work
For `NCC(CC(=O)O)c1ccc(Cl)cc1` (centres unmarked) [Baclofen], the LogP is given as 1.3.
In the case of `CC(C[N+](C)(C)C)OC(N)=O` (centres unmarked) [Bethanechol chloride], the LogP is given as −4.1.
In the case of `COc1ccccc1OCCNCC(O)COc1cccc2[nH]c3ccccc3c12` (centres unmarked) [Carvedilol], the LogP is given as 3.8.
For `CN(C)CCC=C1c2ccccc2C=Cc2ccccc21` [Cyclobenzaprine hydrochloride], the LogP is given as 5.2.
For `CC(C)(S)[C@@H](N)C(=O)O` [D-penicillamine], the LogP is listed as −1.78.
In the case of `CC1=NS(=O)(=O)c2cc(Cl)ccc2N1` [Diazoxide], the LogP is given as 1.20.
For `C[C@H]1c2cccc(O)c2C(=O)C2=C(O)[C@]3(O)C(=O)C(C(N)=O)=C(O)[C@@H](N(C)C)[C@@H]3[C@@H](O)[C@@H]21` [Doxycycline], the LogP is given as 0.63.
For `C#C[C@]1(O)CC[C@H]2[C@@H]3CCc4cc(O)ccc4[C@H]3CC[C@@]21C` [Ethinylestradiol], the LogP is given as 3.67.
In the case of `COc1ccccc1OCC(O)CO` (centres unmarked) [Guaifenesin], the LogP is listed as 1.39.
For `CCCCC1=NC2(CCCC2)C(=O)N1Cc1ccc(-c2ccccc2-c2nnn[nH]2)cc1` [Irbesartan], the LogP is given as 4.5.
In the case of `Nc1nnc(-c2cccc(Cl)c2Cl)c(N)n1` [Lamotrigine], the LogP is listed as 1.93.
In the case of `N[C@@H](Cc1cc(I)c(Oc2cc(I)c(O)c(I)c2)c(I)c1)C(=O)O` [Levothyroxine], the LogP is listed as 4.0.
For `NCCCC[C@H](N[C@@H](CCc1ccccc1)C(=O)O)C(=O)N1CCC[C@H]1C(=O)O` [Lisinopril dihydrate], the LogP is listed as −1.01.
In the case of `CC[C@H](C)C(=O)O[C@H]1C[C@@H](C)C=C2C=C[C@H](C)[C@H](CC[C@@H]3C[C@@H](O)CC(=O)O3)[C@H]21` [Lovaststin], the LogP is listed as 4.08.
In the case of `Cc1cnc(NC(=O)C2=C(O)c3ccccc3S(=O)(=O)N2C)s1` [Meloxicam], the LogP is given as 0.1.
For `Nc1ccc(O)c(C(=O)O)c1` [Mesalamine], the LogP is given as −0.29.
For `NC(=O)c1cnccn1` [Pyrazinamide], the LogP is listed as −0.60.
For `Cc1ncc(CO)c(CO)c1O` [Pyridoxine], the LogP is given as −0.77.
In the case of `CNC(=C[N+](=O)[O-])NCCSCc1ccc(CN(C)C)o1` [Ranitidine], the LogP is listed as 0.2.
In the case of `CC(=O)S[C@@H]1CC2=CC(=O)CC[C@]2(C)[C@H]2CC[C@@]3(C)[C@@H](CC[C@@]34CCC(=O)O4)[C@H]12` [Spironolactone], the LogP is listed as 2.78.
